This passage reports inhibition in vivo results from US5525595A, “3- or 4-glycosyloxybenzopyran derivative and antiallergic agent containing the derivative as active ingredient” (priority 1993, dated 1996).

Assay [1] deals with contact dermatitis induced by picryl chloride. The assay can be described thus: Effect on contact dermatitis induced by picryl chloride in mice (delayed type hypersensitization). The assay is classed as in vivo. Particulars: Mus musculus; 100 mg/kg oral, ear thickness 24 hours after challenge; Table 6; read-out: Inhibition (%) against the increase of ear thickness. The protocol:
The delayed type hypersensitization is inhibited by steroid, but can not be effected by known anti-allergic agents. In the following, the method of the pharmacological test will be explained.
Method: Mice, shaved their abdominal skin on previous day, were immunized by applying 0.1 ml of acetone containing 7 mg of picryl chloride to the skin of the abdomen. 7 days after immunization, the thickness of the ear was measured with a dial thickness gauge, then mice were challenged by painting 5 μl of 1% picryl chloride olive oil solution to each side skin of left ear. 24 hours after challenge, the thickness of the left ear was measured again and the increase (%) of thickness was calculated according to equation 2. The compounds of the present invention (test compounds) suspended in 0.5% CMCNa were forcibly administered orally at a dose of 100 mg/kg at 1 hour before and 16 hours after challenge. As vehicle control group, only 0.5% CMCNa solution were administered orally, and as positive control group, Prednisolone, steroid hormone, and Tranilast were administered orally at the doses of 10 mg/kg and 100 mg/kg, respectively.
Increase (%)=(A-B)/B×100 (Equation 2)
A: thickness of the ear at 24 hours after challenge
B: thickness of the ear before challenge
Inhibition(%)=(C-D)/C×100 (equation 3)
C: The increase (%) in vehicle control group
D: The increase (%) in test compounds group or positive control group

The subject of assay [2] is airway resistance in experimental asthma model. The assay can be described thus: Effect on experimental asthma model in guinea pigs. Format: in vivo, guinea pigs (Male hadley). The note with it: Cavia porcellus; 100 mg/kg oral, OVA challenge, guinea pigs; Table 7. How it is done: The asthma is typical allergic disease and we carried out this pharmacological test by well known experimental asthma model in guinea pigs in order to confirm that the compounds of the present invention suppress the asthma. In the following, the method of the pharmacological test will be explained.
Method: Male hadley guinea pigs were immunized by intraperitoneal injection of saline (1 ml) containing 5 mg of ovalbumine (OVA) three times at interval of one week. 2 weeks after final immunization, the animals were challenged by inhalation of 1% OVA-saline solution for 1 minute and then the airway resistance of the animals were measured for 30 minutes with PULMOS-1 (Medical Interface Project Station Inc.) after the inhalation. The compounds of the present invention (test compounds) suspended in 0.5% CMCNa were given orally at a dose of 100 mg/kg. As positive control group, Disodium Cromoglicate (DSCG), well known anti-allergic agent, in saline were injected at a dose of 20 mg/kg into the vein of the animals. As vehicle control group, only 0.5% CMCNa solution were given orally. The inhibition (%) of the airway resistance in vehicle control group was calculated according to equation 5 and the result was shown in Table 7. Each experimental group consisted of 5 guinea pigs. [formula] In equation 5: A: Maximum airway resistance in vehicle control group
B: Maximum airway resistance in test compounds group or positive control group

Assay [3] has as its system homologous passive cutaneous anaphylaxis (PCA) reaction. The assay can be described thus: Effect on homologous passive cutaneous anaphylaxis (PCA) reaction in rats. Particulars: Rattus norvegicus, 0.5 h; 100 mg/kg oral, 1 hour before antigen, rats; Table 3. The assay is classed as in vivo, rats (Male wistar rats). The protocol:
This experimental animal model is caused by immediate type allergic reaction, namely, antigen-antibody reaction. In the following, the method of this pharmacological test will be explained.
Method: Male wistar rats (9 weeks old) were intradermally administered 0.05 ml of anti-serum against trinitrophenylated ascaris (TNP-As) into two sites on the shaved dorsal skin. 48 hours later, 3-glycosyloxybenzopyran derivatives and 4-glycosyloxybenzopyran derivatives (test compounds) suspended in 0.5% sodium carboxymethylcellulose (CMCNa) were given orally at a dose of 100 mg/kg to the animals. 1 hour after administration of Test compounds, the animals were induced anaphylaxis by injection of saline (1 ml) dissolving 5 mg of Evans Blue and 1 mg of TNP-As into the tail vein of the animals. 30 minutes after induction of anaphylaxis, animals were anesthetized by ether and killed by bleeding, and were flayed dorsal skin. The leakage of dye was assessed by measuring the diameter (mean of shortest and longest diameter) of the blue spot on the inside surface of dorsal skin. As vehicle control group, only 0.5% CMCNa solution was administered orally, and as positive control group, Tranilast suspended in 0.5% CMCNa were administered orally at a dose of 100 mg/kg to the animals with the same method as the test compounds groups. Each experimental group consisted of 5 rats. [formula] In equation 1: A: leakage of dye in vehicle control group
B: leakage of dye in test compound group or in positive control group
The anti-allergic activity of the compounds of the present invention were compared with that of analogous compounds which were published in the Patent (EP-A-0598117) by PCA reaction. This pharmacological test was performed according to the method described in Test Example 1.

As for `CCCCCCCCOc1ccc2c(O)c(O[C@@H]3O[C@H](CO)[C@@H](O)[C@H](O)[C@H]3O)c(=O)oc2c1` [compound 16], the inhibition in vivo at 100 mg/kg in assay [1] was 64%; in assay [2], 75.8%; in assay [3], 62.6%.
On to `CCCCCCCCCCCCOc1ccc2c(O)c(O[C@@H]3O[C@H](CO)[C@@H](O)[C@H](O)[C@H]3O)c(=O)oc2c1` [compound 17], for which the inhibition in vivo at 100 mg/kg in assay [1] came out at 59.2%; in assay [2], 75%; in assay [3] it was 59.2%.
With `CC(C)Oc1ccc2c(O)c(O[C@@H]3O[C@H](CO)[C@@H](O)[C@H](O)[C@H]3O)c(=O)oc2c1` [compound 18], the inhibition in vivo at 100 mg/kg in assay [1] worked out at 56.9%; in assay [2], 70.3%; in assay [3], 56.6%.
The like results for `CCC=CCCOc1ccc2c(O)c(O[C@@H]3O[C@H](CO)[C@@H](O)[C@H](O)[C@H]3O)c(=O)oc2c1` [compound 19] were, in that order, 57.4%, 73.1% and 56.8%.
Consider `CC(C)=CCC/C(C)=C/COc1ccc2c(O)c(O[C@@H]3O[C@H](CO)[C@@H](O)[C@H](O)[C@H]3O)c(=O)oc2c1` [compound 20], for which the inhibition in vivo at 100 mg/kg in assay [1] came out at 56.2%; in assay [2], 72.4%; in assay [3] it was 57.2%.
The like results for `O=C(Oc1ccc2c(O)c(O[C@@H]3O[C@H](CO)[C@@H](O)[C@H](O)[C@H]3O)c(=O)oc2c1)c1ccccc1` [compound 21] were, in that order, 53.6%, 60.7% and 54.4%.
Turning to `O=c1oc2cc(OCc3ccccc3)ccc2c(O)c1O[C@@H]1O[C@H](CO)[C@@H](O)[C@H](O)[C@H]1O` [compound 22], the inhibition in vivo at 100 mg/kg in assay [1] stood at 53.4%; in assay [2], 59.4%; in assay [3], 53.8%.
Take `O=c1oc2cc(O)ccc2c(O)c1O[C@H]1O[C@H](CO)[C@@H](O)[C@H](O)[C@@H]1O` [compound 23]: the inhibition in vivo at 100 mg/kg came to 45% in assay [1], 46.6% in assay [2] and 47.8% in assay [3].
The like results for `CCCCOc1ccc2c(O)c(O[C@H]3O[C@H](CO)[C@@H](O)[C@H](O)[C@@H]3O)c(=O)oc2c1` [compound 24] were, in that order, 52.6%, 58.3% and 54.3%.
Take `CCCCCCCCOc1ccc2c(O)c(O[C@H]3O[C@H](CO)[C@@H](O)[C@H](O)[C@@H]3O)c(=O)oc2c1` [compound 25]: the inhibition in vivo at 100 mg/kg in assay [1] was 57.3%; in assay [2], 68.6%; in assay [3], 50.9%.
Taken in the same sequence, the figures for `CCCCCCCCCCCCOc1ccc2c(O)c(O[C@H]3O[C@H](CO)[C@@H](O)[C@H](O)[C@@H]3O)c(=O)oc2c1` [compound 26] were 55.9%, 66.3% and 53.3%.
As for `CC(C)Oc1ccc2c(O)c(O[C@H]3O[C@H](CO)[C@@H](O)[C@H](O)[C@@H]3O)c(=O)oc2c1` [compound 27], the inhibition in vivo at 100 mg/kg stood at 51.2% in assay [1], 56.7% in assay [2] and 47.8% in assay [3].
For `CCC=CCCOc1ccc2c(O)c(O[C@H]3O[C@H](CO)[C@@H](O)[C@H](O)[C@@H]3O)c(=O)oc2c1` [compound 28], the inhibition in vivo at 100 mg/kg in assay [1] is 50.3%; in assay [2], 57.2%; in assay [3] it was 53.4%.
As for `CC(C)=CCC/C(C)=C/COc1ccc2c(O)c(O[C@H]3O[C@H](CO)[C@@H](O)[C@H](O)[C@@H]3O)c(=O)oc2c1` [compound 29], the inhibition in vivo at 100 mg/kg in assay [1] is 53.6%; in assay [2], 56.1%; in assay [3], 45.6%.
`O=C(Oc1ccc2c(O)c(O[C@H]3O[C@H](CO)[C@@H](O)[C@H](O)[C@@H]3O)c(=O)oc2c1)c1ccccc1` [compound 30]: the inhibition in vivo at 100 mg/kg in assay [1] is 48.7%; in assay [2] it was 47.8%; in assay [3], 41.7%.
The like results for `O=c1oc2cc(OCc3ccccc3)ccc2c(O)c1O[C@H]1O[C@H](CO)[C@@H](O)[C@H](O)[C@@H]1O` [compound 31] were, in that order, 48.6%, 53.5% and 46.9%.
For the compound `O=c1oc2cc(O)ccc2c(O)c1O[C@@H]1O[C@H](CO)[C@H](O)[C@H](O)[C@H]1O` [compound 32], the inhibition in vivo at 100 mg/kg in assay [1] is 48.1%; in assay [2], 54.8%; in assay [3], 43.2%.
Turning to `CCCCOc1ccc2c(O)c(O[C@@H]3O[C@H](CO)[C@H](O)[C@H](O)[C@H]3O)c(=O)oc2c1` [compound 33], the results for the inhibition in vivo at 100 mg/kg in assay [1], in assay [2] and in assay [3] were 62.5%, 68.1% and 57.2%, respectively.
In the case of `CCCCCCCCOc1ccc2c(O)c(O[C@@H]3O[C@H](CO)[C@H](O)[C@H](O)[C@H]3O)c(=O)oc2c1` [compound 34], the figures for the inhibition in vivo at 100 mg/kg in assay [1], in assay [2] and in assay [3] were 64.2%, 78.3% and 64.3%, respectively.
The like results for `CCCCCCCCCCCCOc1ccc2c(O)c(O[C@@H]3O[C@H](CO)[C@H](O)[C@H](O)[C@H]3O)c(=O)oc2c1` [compound 35] were, in that order, 61.1%, 75.2% and 60.1%.
For the compound `CC(C)Oc1ccc2c(O)c(O[C@@H]3O[C@H](CO)[C@H](O)[C@H](O)[C@H]3O)c(=O)oc2c1` [compound 36], the figures for the inhibition in vivo at 100 mg/kg in assay [1], in assay [2] and in assay [3] were 58.2%, 66.4% and 56.7%, respectively.
Consider `CCC=CCCOc1ccc2c(O)c(O[C@@H]3O[C@H](CO)[C@H](O)[C@H](O)[C@H]3O)c(=O)oc2c1` [compound 37], for which the figures for the inhibition in vivo at 100 mg/kg in assay [1], in assay [2] and in assay [3] were 58.3%, 72.4% and 59.5%, respectively.
`CC(C)=CCC/C(C)=C/COc1ccc2c(O)c(O[C@@H]3O[C@H](CO)[C@H](O)[C@H](O)[C@H]3O)c(=O)oc2c1` [compound 38]: the inhibition in vivo at 100 mg/kg in assay [1] amounted to 57.6%; in assay [2], 73.7%; in assay [3] it was 59.6%.
Consider `O=C(Oc1ccc2c(O)c(O[C@@H]3O[C@H](CO)[C@H](O)[C@H](O)[C@H]3O)c(=O)oc2c1)c1ccccc1` [compound 39], for which the values for the inhibition in vivo at 100 mg/kg in assay [1], in assay [2] and in assay [3] were 54.3%, 64.1% and 58.3%, respectively.
On to `O=c1oc2cc(OCc3ccccc3)ccc2c(O)c1O[C@@H]1O[C@H](CO)[C@H](O)[C@H](O)[C@H]1O` [compound 40], for which the results for the inhibition in vivo at 100 mg/kg in assay [1], in assay [2] and in assay [3] were 41.3%, 46.2% and 40.5%, respectively.
